Measurements from US5573926A, “Process for obtaining aroma components and aromas from their precursors of a glycosidic nature, and aroma components and aromas thereby obtained” (Gist-brocades, N.V., priority 1989, dated 1996).

Assays:
[1] = tested on: α-arabinosidase; test: Enzymatic hydrolysis of the muscat glycosidic extract by α-arabinosidase (GC); type: biochemical; conditions: for GC peak of the glycosidic extract after incubation with α-arabinosidase / Terpene monoglucosides liberated by α-arabinosidase from a glycosidic extract: 0.15 nkat, 40° C., 16 h; for Compounds appearing after action of α-arabinosidase: HPLC-collected peak, appears together with arabinose; for % of monoglucosides (liberated by the two enzymes together): sum of α-arabinosidase and α-rhamnosidase
Description: (§1) 40 μl of glycosidic extract and 60 μl of a solution of Glc-pNP (internal standard) at a concentration of 50 mg/1 in ethyl acetate are introduced into a suitable flask. The mixture is taken to dryness at 40° C. with a stream of nitrogen. 40 μl of the silylating reagent (Tri-sil, Pierce, Rockford, Ill., U.S.A.) are then introduced; the flask is sealed and maintained at 40° C. for 20 minutes. After rapid cooling, the silylated sample is then ready for analysis by GC.
(§2) The apparatus used consists of a Series 30C gas chromatograph, an "on-column" injector (injected volume 0.5 μl) and a flame ionization detector (Girdel, France). A thin film (0.20 μm) of an OV-1 (Girdel) apolar silicone phase is grafted onto the inner wall of the capillary column ([…].). The oven temperature is programmed from 125 to 305° C. at the rate of 5° C./minute, then maintained at 305° C. for 15 minutes. Finally, the detector temperature is set at 300° C. and hydrogen is used as the carrier gas at a pressure of 120 kPa.
(§3) The experimental protocols for the enzymatic hydrolysis on the glycosidic extract are collated in Table 3. […]

[2] = tested on: α-arabinosidase and then β-glucosidase; test: Sequential hydrolysis by α-arabinosidase and then β-glucosidase (GC of sugars, glucosides, terpenols); type: biochemical; conditions: HPLC-collected peak; appears together with glucose
Description: The monoterpene alcohols studied here are sufficiently volatile to be chromatographed as they are. To the pentane extract containing them, the internal standard, 4-nonanol (for synthesis, Merck, Darmstadt, FRG) is added in the proportion of 1 μl of a solution at a concentration of 2.89 mg/ml in pentane per 50 μl of medium. The mixture is then dried over sodium sulphate, filtered through glass wool and then concentrated to a volume in the region of 100 μl For this purpose, the pentane is first removed using a conventional still, and then a Dufton type column of a size suited to the volume remaining to be concentrated.
The constituents of the concentrated extract are separated using a capillary column (25 m×0.32 mm I.D.) containing a CP wax 52 CB (Chrompack, Middelburg, Netherlands) polar phase. The grafted polyethylene glycol film was selected thick (1.28 μm) in order to permit the injection of large sample volumes, up to 4 μl. […]
Furthermore, each fraction was subjected to the sequential action of α-arabinosidase and then β-glucosidase. At the end of each stage and according to the procedures described, the incubated medium was analysed by GC in order to test for sugars and glucosides on the one hand, and for terpenols on the other hand. […]

[3] = tested on: β-apiosidase; test: Enzymatic hydrolysis of Api-Glc-Ger by β-apiosidase present in Klerzyme 200 (TLC); type: biochemical
Description: The β-apiosidase present in a commercial enzyme preparation (Klerzyme 200, Gist-brocades, France) was used without further purification.
(§4) Thin-layer adsorption chromatography was carried out on pieces of aluminium foil covered with a thin layer (0.2 mm) of silica gel (5553 Silica gel 60 without a fluorescence indicator, Merck). An ethyl acetate/isopropanol/water (65:30:10 v/v/v) mixture was used as a migration solvent.
(§5) The sugars and the glycosides are visualized by means of the following mixture, prepared immediately before use: 0.2% naphthoresorcinol in ethanol/concentrated sulphuric acid (19:1 v/v). The application of this visualizing agent is followed by drying the plates in the oven (105° C.) for 15 minutes. Apart from their migration distance, the various compounds are also distinguished by their colour. The glycosides are purple-red, the arabinosides are bluish, the apiosides are green, rhamnose greenish pink, arabinose blue, apiose green and glucose pink.
(§6) In all the tests relating to the enzymatic hydrolysis of the synthetic substrates, the same glycosidase activity (0.15 nkat) is used for each of the enzymes (α-arabinosidase, apiosidase, α-rhamnosidase, β-glucosidase).

[4] = tested on: α-arabinosidase; test: Enzymatic hydrolysis of synthetic substrates by α-arabinosidase (TLC); type: biochemical; conditions: 0.15 nkat, 40° C., 90 min, pH 4.2
Description: as §4, §5, §6
(§7) The hydrolysis and analysis protocols are given in plan form (Table 2). […]

[5] = Enzymatic hydrolysis of a glycosidic extract in natural media (must, dry wine) by Hemicellulase REG2 + Naringinase; type: biochemical; conditions: 25° C., 86 hours
Description: The enzymatic hydrolysis of a glycosidic extract incorporated, on the one hand into a natural medium (must or dry wine), and on the other hand into a reference medium (buffer), by the action of commercial preparations containing the requisite three glycosidases, was studied.
A juice and a wine of a vine variety not containing terpenols and terpene glycosides, but enriched beforehand with a known amount of glycosidic extract of muscat, are treated with commercial enzyme preparations. The media, as well as controls, are incubated at 25° C. for 86 hours (see the experimental protocol plan below). They are then passed through a column of Amberlite XAD-2 according to the protocol applied for the production of the glycosidic extract, and the terpenols are assayed by GC.

[6] = tested on: β-glucosidase; test: Second stage: consecutive action of β-glucosidase on the pre-incubated glycosidic extract (GC); type: biochemical, sweet almond; conditions: 0.15 nkat, 40°, 16 h
Description: as §1, §2, §3

[7] = tested on: β-glucosidase; test: Enzymatic hydrolysis of synthetic substrates by β-glucosidase (TLC, pNP liberated, GC); type: biochemical, sweet almond; conditions: media previously incubated with α-arabinosidase or α-rhamnosidase; 0.15 nkat, 40° C., 90 min
Description: as §5, with “An ethyl acetate/isopropanol/water (65:30:10 v/v/v) mixture was used as a migration solvent. The sugars” for “The sugars”, “glucose pink. […] The hydrolysis and analysis protocols are given in plan form (Table 2). […]” for “glucose pink.”

[8] = tested on: α-rhamnosidase; test: Enzymatic hydrolysis of the muscat glycosidic extract by α-rhamnosidase (GC); type: biochemical; conditions: 0.15 nkat, 40° C., 16 h
Description: as §1, §2, §3

[9] = biological target: T1, β-glucosidase (originating from the yeast Candida wickerhamii CBS 2928) (Nakazawaea wickerhamii, UniProt Q12601); test: Hydrolysis of monoglucosides in naturally sweet wines by Candida wickerhamii β-glucosidase; type: biochemical
T1 sequence (Q12601 20-609): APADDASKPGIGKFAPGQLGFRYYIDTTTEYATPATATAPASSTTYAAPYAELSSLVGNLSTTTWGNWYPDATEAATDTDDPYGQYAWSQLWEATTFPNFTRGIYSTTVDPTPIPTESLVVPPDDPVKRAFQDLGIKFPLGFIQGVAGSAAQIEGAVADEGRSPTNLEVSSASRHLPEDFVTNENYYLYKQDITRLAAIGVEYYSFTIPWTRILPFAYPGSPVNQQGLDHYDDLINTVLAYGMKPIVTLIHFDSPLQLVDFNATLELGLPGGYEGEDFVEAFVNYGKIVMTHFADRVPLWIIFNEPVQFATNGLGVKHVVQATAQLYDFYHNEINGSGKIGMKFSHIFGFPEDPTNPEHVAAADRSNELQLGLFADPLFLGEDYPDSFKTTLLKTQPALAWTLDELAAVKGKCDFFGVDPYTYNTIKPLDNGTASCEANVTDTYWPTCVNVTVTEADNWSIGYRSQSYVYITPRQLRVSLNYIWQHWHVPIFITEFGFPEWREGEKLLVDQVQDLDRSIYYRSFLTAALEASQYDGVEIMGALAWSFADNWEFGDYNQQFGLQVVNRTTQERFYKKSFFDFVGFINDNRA

[10] = tested on: α-rhamnosidase; test: Enzymatic hydrolysis of synthetic substrates by α-rhamnosidase (TLC); type: biochemical; conditions: 0.15 nkat, 40° C., 90 min, pH 4.2
Description: as §4, §5, §6, §7

[11] = tested on: β-glucosidase (originating from Aspergillus niger); test: Inhibition of β-glucosidase activity by glucose in must and sweet wine; type: biochemical

CC(C)=CCC/C(C)=C/CO[C@@H]1O[C@H](CO[C@@H]2O[C@@H](CO)[C@H](O)[C@H]2O)[C@@H](O)[C@H](O)[C@H]1O (single isomer, unassigned) [Ara-Glc-Ger, Geranyl 6-O-(α-L-arabinofuranosyl)-β-D-glucopyranoside]
GC peak of the glycosidic extract after incubation with α-arabinosidase [1]: disappear completely | Compounds appearing after action of α-arabinosidase [1]: Glc--Ger | Compounds appearing after action of α-arabinosidase and then β-glucosidase [2]: geraniol

CC(C)=CCC/C(C)=C/CO[C@@H]1O[C@H](CO[C@@H]2OC[C@](O)(CO)[C@H]2O)[C@@H](O)[C@H](O)[C@H]1O [Api-Glc-Ger, geranyl β-D-apiofuranosyl-(1→6)-β-D-glucopyranoside]
hydrolysis by β-apiosidase present in Klerzyme 200 (TLC) [3]: disappearance of the substrate and the appearance of apiose and glucose

CC(C)=CCC/C(C)=C\CO[C@@H]1O[C@H](CO[C@@H]2O[C@@H](CO)[C@H](O)[C@H]2O)[C@@H](O)[C@H](O)[C@H]1O [Ara-Glc-Ner, neryl a-L-arabinofuranosyl-(1→6)-β-D-glucopyranoside]
GC peak of the glycosidic extract after incubation with α-arabinosidase [1]: disappear completely | Compounds appearing after action of α-arabinosidase [1]: Glc--Ner | Compounds appearing after action of α-arabinosidase and then β-glucosidase [2]: nerol

O=[N+]([O-])c1ccc(O[C@@H]2O[C@H](CO[C@@H]3O[C@@H](CO)[C@H](O)[C@H]3O)[C@@H](O)[C@H](O)[C@H]2O)cc1 [Ara-Glc-pNP, p-Nitrophenyl 6-O-(α-L-arabinofuranosyl)-β-D-glucopyranoside]
hydrolysis by α-arabinosidase (TLC) [4]: disappearance of this substrate and the appearance of arabinose and Glc-pNP

OCc1ccccc1 [Benzyl alcohol]
Compounds liberated relative to the reference medium ([5]; MUST (pH 3.4, sugars 180 g/l)): 46% | Compounds liberated relative to the reference medium ([5]; WINE (dry white, pH 3.1)): 50%

CC(C)=CCC/C(C)=C/CO[C@@H]1O[C@H](CO)[C@@H](O)[C@H](O)[C@H]1O [Glc-Ger, geranyl β-D-glucopyranoside]
hydrolysis by consecutive action of β-glucosidase (second stage, GC) [6]: disappearance | Terpene monoglucosides liberated by α-arabinosidase from a glycosidic extract [1]: 39% | % of monoglucosides (liberated by the two enzymes together) [1]: 48% | consecutive action of β-glucosidase (second stage, TLC) [7]: disappearance of Glc-Ger and Glc-pNP and the appearance of glucose | Terpene monoglucosides liberated by α-rhamnosidase from a glycosidic extract [8]: 9% | hydrolyzed by Candida wickerhamii β-glucosidase ([9]; pH 3.6): 45% | hydrolyzed by Candida wickerhamii β-glucosidase ([9]; pH 4.0): two thirds

CC(C)=CCC/C(C)=C\CO[C@@H]1O[C@H](CO)[C@@H](O)[C@H](O)[C@H]1O [Glc-Ner, neryl β-D-glucopyranoside]
hydrolysis by consecutive action of β-glucosidase (second stage, GC) [6]: disappearance | Terpene monoglucosides liberated by α-arabinosidase from a glycosidic extract [1]: 28% | % of monoglucosides (liberated by the two enzymes together) [1]: 33% | Terpene monoglucosides liberated by α-rhamnosidase from a glycosidic extract [8]: 5% | hydrolyzed by Candida wickerhamii β-glucosidase ([9]; pH 3.6): 19% | hydrolyzed by Candida wickerhamii β-glucosidase ([9]; pH 4.0): two thirds

O=[N+]([O-])c1ccc(O[C@@H]2O[C@H](CO)[C@@H](O)[C@H](O)[C@H]2O)cc1 [Glc-pNP, p-nitrophenyl β-D-glucopyranoside, reference compound]
consecutive action of β-glucosidase (second stage, TLC) [7]: disappearance of Glc-Ger and Glc-pNP and the appearance of glucose

C=CC(C)(O)CCC=C(C)C (stereo not shown) [Linalol]
Compounds liberated relative to the reference medium ([5]; MUST (pH 3.4, sugars 180 g/l)): 9% | Compounds liberated relative to the reference medium ([5]; WINE (dry white, pH 3.1)): 14%

CC(C)=CCC/C(C)=C/CO[C@@H]1O[C@H](CO[C@@H]2O[C@@H](C)[C@H](O)[C@@H](O)[C@H]2O)[C@@H](O)[C@H](O)[C@H]1O [Rha-Glc-Ger, Geranyl 6-O-(α-L-rhamnopyranosyl)-β-D-glucopyranoside]
hydrolysis by α-rhamnosidase (TLC) [10]: disappearance of these substrates | GC peak of the glycosidic extract after the action of α-rhamnosidase [8]: decreases

C[C@@H]1O[C@@H](OC[C@H]2O[C@@H](Oc3ccc([N+](=O)[O-])cc3)[C@H](O)[C@@H](O)[C@@H]2O)[C@H](O)[C@H](O)[C@H]1O [Rha-Glc-pNP]
hydrolysis by α-rhamnosidase (TLC) [10]: disappearance of these substrates

OC[C@H]1OC(O)[C@H](O)[C@@H](O)[C@@H]1O (stereo partly shown) [glucose]
effect on β-glucosidase activity ([11]; glucose 30 g/l in naturally sweet wines): inhibiting β-glucosidase | effect on β-glucosidase activity ([11]; glucose present in large amounts in the must): inhibition of the β-glucosidase activity
